# Measured values from patent publication US9795692B2, “Ocular detection of amyloid proteins” (SYSTEM OF SYSTEMS ANALYTICS, INC., priority 2011, dated 2017).
# Legend:
# Assay type in all cases: binding
# [1] = target: T1, non-Congophilic amyloid protein aggregates in human brain tissue (Homo sapiens, UniProt P05067); experiment: Staining of human hippocampal region and cerebral cortex compared with Congo Red
# T1 construct: from tissue; host or cells: human post-mortem brain tissue (neocortex, hippocampus, cerebral cortex)
# [2] = system: amyloid protein aggregates in brain tissue of transgenic mice with Alzheimer's Disease (Tg AD); experiment: Staining of murine brain tissue with FITC-labeled probe; details: age-matched non-Tg murine brain; dentate gyrus or midbrain
# Protocol: Probes for detecting amyloid protein aggregates in brain tissue of transgenic mice with Alzheimer's Disease (Tg AD) were prepared in accordance with the methods described herein.
# [3] = system: amyloid aggregates in human eyes (optic nerve, ciliary retina, retina, drusen); experiment: Staining of sectioned human donor eyes
# Source text: Human eyes from donors with and without Alzheimer's Disease were obtained from the Georgia Eye Bank.
# [4] = patient (3), 11-1755/6, person, Alzheimer's Disease and dementia
# [5] = patient (4), 11-1767-8, person, Alzheimer's Disease
# T1 sequence (P05067 672-713 limits assumed): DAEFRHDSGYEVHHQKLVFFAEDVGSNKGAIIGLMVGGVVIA
Compound,structures stained in the cerebral cortex ([1]; cerebral cortex of patients with Alzheimer's Disease),staining of morphological structures within the brain parenchyma ([1]; human brain parenchyma),"structures stained in the hippocampal region ([1]; human brain tissue, hippocampal region)",staining of non-Tg control brain tissue [2],"binding to amyloid aggregates in the optic nerve, intensity ([3]; human eye sections, optic nerve, PEP-11 compared with BC750)","staining of the retina, intensity and homogeneity ([3]; human eye sections, retina)","retinal staining: distinguishing Alzheimer's Disease from non-Alzheimer's Disease tissue ([3]; human eye sections, retina, AD vs non-AD eyes)","binding in optic nerve and ciliary retina ([3]; human eye sections, optic nerve immediately posterior to lamina cribrosa, ciliary retina)",manner of optic nerve staining ([3]; optic nerve of Alzheimer's Disease patients),"ciliary retina background staining [3, 4]","optic nerve staining [3, 4]","ciliary retina background staining [3, 5]","optic nerve staining [3, 5]","staining of drusen ([3]; patient eyes, generally)"
Nc1c(/N=N/c2ccc(-c3ccc(/N=N/c4cc(S(=O)(=O)O)c5ccccc5c4N)cc3)cc2)cc(S(=O)(=O)O)c2ccccc12 [Congo Red],stained congophilic neuro-fibrillary tangles,Neither Congo Red nor PEP-11 stained any morphological structure,stained amyloid plaques at the center of the plaques,–,–,–,–,–,–,–,–,–,–,–
"PEP-11: WT17-35 with FITC and d-Arginine at C-Terminal (CLVFFAEDVGSNKGAIIGLMC; FITC label, C-terminal D-arginine; /note=“Description of Artificial Sequence Synthetic probe”)",–,–,–,minimally stained,significantly greater,ubiquitous background staining of retinal tissue,less intensely in non-Alzheimer's Disease eyes as compared to Alzheimer's Disease eyes,bound to amyloid aggregates,dose gradient manner,moderate and homogenous,moderate,moderate and homogenous,intense,appears to stain drusen
